Active and inactive are the calls of the source. No cut-off for these calls is given here.
How the values were obtained:
[1] = Toxicity in BALB/c mouse implanted with mouse 4T1 cells assessed as effect on cell size in liver at 5 to 15 mg/kg, ip measured after 21 days by H and E staining based assay; assay type: organism-based; conditions: in vivo, 504 h, dose 5-15 mg/kg, time 21 day
[2] = Selectivity ratio of IC50 for cytotoxicity against human HEK293 cells assessed as inhibition of cell growth to IC50 for cytotoxicity against human MDA-MB-231 cells assessed as inhibition of cell growth; assay type: toxicity, cell-based; conditions: HEK293 cells versus MDA-MB-231 cells, read-out: Ratio IC50
[3] = Toxicity in BALB/c mouse implanted with mouse 4T1 cells assessed as effect on cell shape in kidney at 5 to 15 mg/kg, ip measured after 21 days by H and E staining based assay; assay type: organism-based; conditions: in vivo, 504 h, dose 5-15 mg/kg, time 21 day
[4] = Metabolic stability in rat liver microsome assessed as intrinsic clearance preincubated for 5 mins followed by NADPH addition and measured after 60 mins by HPLC analysis; assay type: ADME; conditions: liver microsomes, time 65 min, read-out: CLH
[5] = Cytotoxicity against human MCF-10A cells assessed as inhibition of cell growth incubated for 72 hrs by MTT assay; assay type: toxicity, cell-based
[6] = system: 4T1; experiment: In-vivo inhibition of HDAC3 in ip dosed BALB/c mouse implanted with mouse 4T1 cells assessed as hyperacetylation of H4K12 level by Western blot analysis; assay type: functional, organism-based; conditions: dose 5-15 mg/kg
[7] = Selectivity ratio of IC50 for cytotoxicity against human HEK293 cells assessed as inhibition of cell growth to IC50 for cytotoxicity against mouse 4T1 cells assessed as inhibition of cell growth; assay type: toxicity, cell-based; conditions: HEK293 cells versus 4T1 cells, read-out: Ratio IC50
[8] = Cytotoxicity against Oxaliplatin-resistant human MDA-MB-231 cell assessed as reduction in cell viability incubated for 72 hrs by MTT assay; assay type: functional, cell-based; conditions: Oxaliplatin-resistant MDA-MB-231 cell
[9] = molecular target: Histone deacetylase 4 (Homo sapiens, UniProt P56524); experiment: Inhibition of HDAC4 (unknown origin) incubated for 30 mins by fluorescence based microplate analysis
Histone deacetylase 4, sequence (P56524 whole entry): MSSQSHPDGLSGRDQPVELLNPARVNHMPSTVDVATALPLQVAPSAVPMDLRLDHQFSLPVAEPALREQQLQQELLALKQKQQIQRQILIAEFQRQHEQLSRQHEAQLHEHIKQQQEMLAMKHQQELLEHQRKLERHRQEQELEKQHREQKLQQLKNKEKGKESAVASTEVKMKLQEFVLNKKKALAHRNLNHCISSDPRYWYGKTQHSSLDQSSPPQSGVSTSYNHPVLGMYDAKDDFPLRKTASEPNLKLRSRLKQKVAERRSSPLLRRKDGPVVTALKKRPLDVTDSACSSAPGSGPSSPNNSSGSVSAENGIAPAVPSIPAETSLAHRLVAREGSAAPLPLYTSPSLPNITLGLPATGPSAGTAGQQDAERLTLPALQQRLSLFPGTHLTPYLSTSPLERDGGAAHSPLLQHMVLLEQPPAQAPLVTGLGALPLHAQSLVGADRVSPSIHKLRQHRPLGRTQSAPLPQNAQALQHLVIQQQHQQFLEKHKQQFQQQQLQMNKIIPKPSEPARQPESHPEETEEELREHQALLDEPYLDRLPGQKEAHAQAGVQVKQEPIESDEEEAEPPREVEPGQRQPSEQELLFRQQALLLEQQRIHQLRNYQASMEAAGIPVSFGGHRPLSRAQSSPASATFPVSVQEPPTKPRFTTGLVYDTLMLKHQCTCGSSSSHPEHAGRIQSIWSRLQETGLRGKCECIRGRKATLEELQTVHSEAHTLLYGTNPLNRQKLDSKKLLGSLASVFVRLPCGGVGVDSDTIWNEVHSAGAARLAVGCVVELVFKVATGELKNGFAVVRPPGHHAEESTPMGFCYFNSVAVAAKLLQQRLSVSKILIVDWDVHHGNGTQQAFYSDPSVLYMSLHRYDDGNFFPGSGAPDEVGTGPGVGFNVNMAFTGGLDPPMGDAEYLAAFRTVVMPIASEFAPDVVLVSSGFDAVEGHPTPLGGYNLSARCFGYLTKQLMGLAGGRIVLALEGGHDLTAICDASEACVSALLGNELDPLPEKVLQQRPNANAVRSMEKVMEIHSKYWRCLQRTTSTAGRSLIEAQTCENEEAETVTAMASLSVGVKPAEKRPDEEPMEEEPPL

[10] = Selectivity ratio of IC50 for cytotoxicity against human MCF-10A cells assessed as inhibition of cell growth to IC50 for cytotoxicity against […] cells assessed as inhibition of cell growth; assay type: toxicity, cell-based; conditions: MCF-10A cells versus 4T1 cells, read-out: Ratio IC50
[11] = system: 4T1; experiment: Antitumor activity against mouse 4T1 cells implanted in BALB/c mouse assessed as upregulation of caspase-7 level in tumor at 5 to 15 mg/kg, ip by Western blot analysis; assay type: functional, organism-based; conditions: dose 5-15 mg/kg
[12] = system: 4T1; experiment: Cell cycle arrest in mouse 4T1 cells assessed as accumulation of cells at G2/M phase at 2.75 uM incubated for 72 hrs by flow cytometry; assay type: functional
[13] = Toxicity in BALB/c mouse implanted with mouse 4T1 cells assessed as neutrophilic infiltration in spleen at 5 to 15 mg/kg, ip measured after 21 days; assay type: organism-based; conditions: in vivo, 504 h, dose 5-15 mg/kg, time 21 day
[14] = system: 4T1; experiment: Antitumor activity against mouse 4T1 cells implanted in BALB/c mouse assessed as reduction in tumor volume at 5 mg/kg, ip administered 5 times a week for 21 days (reference value: 52.05+/-13.23 mm3); assay type: functional; conditions: time 21 day
[15] = system: 4T1; experiment: Antitumor activity against mouse 4T1 cells implanted in BALB/c mouse assessed as decrease in number of lung aggregated cells at 15 mg/kg, ip measured for 7 days by H and E staining based assay; assay type: functional, organism-based; conditions: time 7.0 day
[16] = Toxicity in BALB/c mouse implanted with mouse 4T1 cells assessed as effect on cell size in spleen at 5 to 15 mg/kg, ip measured after 21 days by H and E staining based assay; assay type: organism-based; conditions: in vivo, 504 h, dose 5-15 mg/kg, time 21 day
[17] = system: 4T1; experiment: Cell cycle arrest in mouse 4T1 cells assessed as accumulation of cells at G2/M phase at 110 nM incubated for 72 hrs by flow cytometry; assay type: functional
[18] = Selectivity ratio of IC50 for cytotoxicity against human HEK293 cells assessed as inhibition of cell growth to IC50 for cytotoxicity against human MCF7 cells assessed as inhibition of cell growth; assay type: toxicity, cell-based; conditions: HEK293 cells versus MCF7 cells, read-out: Ratio IC50
[19] = system: 4T1; experiment: Induction of apoptosis in mouse 4T1 cells assessed as nuclear fragmentation incubated for 72 hrs by acridine orange staining based analysis; assay type: functional, cell-based
[20] = system: 4T1; experiment: Antitumor activity against mouse 4T1 cells implanted in BALB/c mouse assessed as tumor growth inhibition at 15 mg/kg, ip measured on day 21; assay type: functional; conditions: 4T1, 504 h, time 21 day, read-out: TGI
[21] = molecular target: T1, Protein deacetylase HDAC6 (Homo sapiens, UniProt Q9UBN7); experiment: Inhibition of human recombinant HDAC6 incubated for 10 mins by fluorescence based microplate analysis
T1 sequence (Q9UBN7 whole entry): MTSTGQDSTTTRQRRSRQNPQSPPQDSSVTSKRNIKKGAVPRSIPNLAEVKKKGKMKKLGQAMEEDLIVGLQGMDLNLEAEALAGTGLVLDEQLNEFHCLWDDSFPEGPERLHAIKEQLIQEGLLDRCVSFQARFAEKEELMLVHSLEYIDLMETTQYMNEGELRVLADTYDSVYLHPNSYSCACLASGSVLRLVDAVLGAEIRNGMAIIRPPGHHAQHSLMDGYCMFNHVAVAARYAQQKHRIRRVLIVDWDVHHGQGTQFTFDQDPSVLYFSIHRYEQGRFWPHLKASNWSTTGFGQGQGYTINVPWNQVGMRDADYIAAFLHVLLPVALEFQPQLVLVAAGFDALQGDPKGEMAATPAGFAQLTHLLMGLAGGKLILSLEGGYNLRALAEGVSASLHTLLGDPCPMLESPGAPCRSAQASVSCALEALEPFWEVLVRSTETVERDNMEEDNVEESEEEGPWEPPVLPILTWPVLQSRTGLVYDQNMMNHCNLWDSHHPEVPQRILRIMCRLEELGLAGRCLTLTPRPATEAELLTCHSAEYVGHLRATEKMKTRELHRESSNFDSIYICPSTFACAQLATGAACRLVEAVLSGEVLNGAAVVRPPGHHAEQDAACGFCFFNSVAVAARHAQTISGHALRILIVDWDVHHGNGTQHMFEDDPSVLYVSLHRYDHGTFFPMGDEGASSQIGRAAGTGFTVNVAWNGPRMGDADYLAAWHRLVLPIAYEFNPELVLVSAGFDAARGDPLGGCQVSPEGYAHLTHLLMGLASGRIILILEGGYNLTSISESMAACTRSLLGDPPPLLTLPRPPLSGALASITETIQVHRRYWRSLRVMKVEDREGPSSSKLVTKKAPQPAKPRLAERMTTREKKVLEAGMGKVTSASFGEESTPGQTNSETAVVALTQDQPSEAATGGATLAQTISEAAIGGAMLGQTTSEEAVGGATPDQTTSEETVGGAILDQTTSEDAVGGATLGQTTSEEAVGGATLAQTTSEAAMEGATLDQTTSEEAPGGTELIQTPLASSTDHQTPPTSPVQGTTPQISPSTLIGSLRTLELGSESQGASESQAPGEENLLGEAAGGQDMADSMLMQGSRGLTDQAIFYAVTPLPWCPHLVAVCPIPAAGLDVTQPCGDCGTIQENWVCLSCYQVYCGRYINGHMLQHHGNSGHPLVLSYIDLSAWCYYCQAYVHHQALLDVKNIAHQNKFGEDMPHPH

## CCCNNC(=O)c1cnc(NCc2ccc(OC)cc2)cn1
[1]
  Activity: Non-Toxic
[2]
  selectivity ratio: 286
[3]
  Activity: Non-Toxic
[4]
  microsomal CLint: 36.2 µL/min/mg
[5]
  IC50 at 72 h: 212 µM
[6]
  inhibition: Dose-Dependent Effect
[7]
  selectivity ratio: 286
[8]
  IC50: 0.754 µM
[9]
  IC50: > 20 µM
[10]
  selectivity ratio: 385
[11]
  Activity: Active
[12]
  Activity: 63.4%
[13]
  Activity: Non-Toxic
[14]
  Activity: 185.23 mm3
[15]
  Activity: Active
[16]
  Activity: Non-Toxic
[17]
  Activity: 38.8%
[18]
  selectivity ratio: 286
[19]
  Activity: Active
[20]
  inhibition in vivo at 15 mg/kg: 97.9%
[21]
  IC50: 25.9 µM
